# Test system: σ1 receptor and the μ-opiod receptor
# Experiment: μ and σ1 dual binding: combined class from the Ki of both radioligand assays
# Set-up: species or system human; key to μ and σ1 dual binding: +: Both Ki-μ and Ki-σ1>=500 nM; ++: One Ki<500 nM while the other Ki is >=500 nM; +++: Both Ki-μ and Ki-σ1<500 nM; ++++: Both Ki-μ and Ki-σ1<100 nM
# Conditions: transfected HEK-293 membranes (σ1), transfected CHO-K1 cell membranes (μ); for μ and σ1 dual binding: combined class for Ki-μ and Ki-σ1
# In short: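 Classes combine both Ki values, split at 500 nM and 100 nM. Human μ-opioid binding used 1 nM [3H]-DAMGO on CHO-K1 membranes (27 °C, 60 min, pH 7.4, naloxone 10 μM for NSB); human σ1 used 5 nM [3H](+)-pentazocine on HEK-293 membranes (37 °C, 120 min, pH 8, haloperidol 10 μM for NSB).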
Compound,μ and σ1 dual binding,Ki range for both μ and σ1 (dual-binding class) [nM]
"COc1cccnc1-n1cc(CN2CCC(c3cccc(O)c3)CC2)nn1 [Example 219, 3-(1-((1-(3-methoxypyridin-2-yl)-1H-1,2,3-triazol-4-yl)methyl)piperidin-4-yl)phenol]",++,–
"CCN(CC)C(=O)Cn1cc(CN2CCC(c3cccc(O)c3)CC2)nn1 [Example 45, N,N-diethyl-2-(4-((4-(3-hydroxyphenyl)piperidin-1-yl)methyl)-1H-1,2,3-triazol-1-yl)acetamide]",++,–
"CC(C)S(=O)(=O)Nc1cccc([C@@H]2CCN(Cc3cn(-c4ccccc4)nn3)C[C@@H]2O)c1 (racemic) [Example 115, N-(3-((3R,4S)-3-hydroxy-1-((1-phenyl-1H-1,2,3-triazol-4-yl)methyl)piperidin-4-yl)phenyl)propane-2-sulfonamide]",–,< 500
"O=C1Cc2c(cccc2C2CCN(Cc3cn(-c4ccccc4)nn3)CC2)N1 [Example 32, 4-(1-((1-phenyl-1H-1,2,3-triazol-4-yl)methyl)piperidin-4-yl)indolin-2-one]",++,–
"CC(C)S(=O)(=O)Nc1cccc(C2CCN(Cc3cn(Cc4ccccn4)nn3)CC2)n1 [Example 206, N-(6-(1-((1-(pyridin-2-ylmethyl)-1H-1,2,3-triazol-4-yl)methyl)piperidin-4-yl)pyridin-2-yl)propane-2-sulfonamide]",–,< 500
"CCC(=O)Nc1cncc(C2CCN(Cc3cn(-c4ccccc4)nn3)CC2)c1 [Example 195, N-(5-(1-((1-phenyl-1H-1,2,3-triazol-4-yl)methyl)piperidin-4-yl)pyridin-3-yl)propionamide]",–,≥ 500
"Oc1ccc(-n2cc(CN3CCC(c4cccc(O)c4)CC3)nn2)cc1 [Example 107, 3-(1-((1-(4-hydroxyphenyl)-1H-1,2,3-triazol-4-yl)methyl)piperidin-4-yl)phenol]",–,< 100
"CS(=O)(=O)Nc1cccc(C2CCN(Cc3cn([C@@H]4c5ccccc5C[C@H]4O)nn3)CC2)c1 [Example 92, N-(3-(1-((1-((1R,2R)-2-hydroxy-2,3-dihydro-1H-inden-1-yl)-1H-1,2,3-triazol-4-yl)methyl)piperidin-4-yl)phenyl)methanesulfonamide]",–,< 500
"Oc1cccc(C2CCN(Cc3cnn(Cc4ncccc4F)c3)CC2)c1 [Example 172, 3-(1-((1-((3-fluoropyridin-2-yl)methyl)-1H-pyrazol-4-yl)methyl)piperidin-4-yl)phenol]",–,< 500
"Oc1cccc(C2CCN(Cc3cn([C@H]4c5ccccc5C[C@@H]4O)nn3)CC2)c1 [Example 65, (1S,2S)-1-(4-((4-(3-hydroxyphenyl)piperidin-1-yl)methyl)-1H-1,2,3-triazol-1-yl)-2,3-dihydro-1H-inden-2-ol]",–,< 500
"COc1cccnc1Cn1cc(CN2CCC(c3cccc(O)c3)CC2)nn1 [Example 158, 3-(1-((1-((3-methoxypyridin-2-yl)methyl)-1H-1,2,3-triazol-4-yl)methyl)piperidin-4-yl)phenol]",++,–
"CC(C)S(=O)(=O)Nc1cccc(C2CCN(Cc3cn(Cc4ncccc4C(F)(F)F)nn3)CC2)c1 [Example 121, N-(3-(1-((1-((3-(trifluoromethyl)pyridin-2-yl)methyl)-1H-1,2,3-triazol-4-yl)methyl)piperidin-4-yl)phenyl)propane-2-sulfonamide]",++,–
"N#Cc1ccc(Cn2cc(CN3CCC(c4cccc(O)c4)CC3)nn2)cc1 [Example 43, 4-((4-((4-(3-hydroxyphenyl)piperidin-1-yl)methyl)-1H-1,2,3-triazol-1-yl)methyl)benzonitrile]",–,< 100
"CS(=O)(=O)Nc1cc(C2CCN(Cc3cn(-c4ccccc4)nn3)CC2)ccc1F [Example 34, N-(2-fluoro-5-(1-((1-phenyl-1H-1,2,3-triazol-4-yl)methyl)piperidin-4-yl)phenyl)methanesulfonamide]",–,< 500
"c1ccc(-n2cc(CN3CCC(c4cccc(-c5nnn[nH]5)c4)CC3)nn2)cc1 [Example 85, 4-(3-(1H-tetrazol-5-yl)phenyl)-1-((1-phenyl-1H-1,2,3-triazol-4-yl)methyl)piperidine]",–,≥ 500
"Oc1cccc(C2CCN(Cc3cn(Cc4ccc(Cl)cn4)nn3)CC2)c1 [Example 153, 3-(1-((1-((5-chloropyridin-2-yl)methyl)-1H-1,2,3-triazol-4-yl)methyl)piperidin-4-yl)phenol]",–,< 100
"Oc1cccc(C2CCN(Cc3cn(-c4ccccc4)nn3)CC2)c1 [Example 2, 3-(1-((1-phenyl-1H-1,2,3-triazol-4-yl)methyl)piperidin-4-yl)phenol]",–,< 100
"CS(=O)(=O)Nc1ccc(C(F)(F)F)c(C2CCN(Cc3cn(-c4ccccc4)nn3)CC2)c1 [Example 20, N-(3-(1-((1-phenyl-1H-1,2,3-triazol-4-yl)methyl)piperidin-4-yl)-4-(trifluoromethyl)phenyl)methanesulfonamide]",++,–

Compound,μ and σ1 dual binding,Ki range for both μ and σ1 (dual-binding class) [nM]
COc1cccc(Cn2cc(CN3CCC(c4cccc(NS(=O)(=O)C(C)C)c4)CC3)nn2)n1 [Example 113],–,< 100
"CC(C)NC(=O)c1cccc(C2CCN(Cc3cn(Cc4ccccc4)nn3)CC2)c1 [Example 51, 3-(1-((1-benzyl-1H-1,2,3-triazol-4-yl)methyl)piperidin-4-yl)-N-isopropylbenzamide]",–,≥ 500
"Oc1cccc(C2CCN(Cc3cn(-c4cc(F)ccc4F)nn3)CC2)c1 [Example 223, 3-(1-((1-(2,5-difluorophenyl)-1H-1,2,3-triazol-4-yl)methyl)piperidin-4-yl)phenol]",–,< 100
"CC(C)S(=O)(=O)Nc1cccc([C@H]2CCN(Cc3cn(-c4ccccc4)nn3)C[C@H]2O)c1 (racemic) [Example 127, N-(3-((3S,4R)-3-hydroxy-1-((1-phenyl-1H-1,2,3-triazol-4-yl)methyl)piperidin-4-yl)phenyl)propane-2-sulfonamide]",++,–
"CC(C)S(=O)(=O)Nc1cccc(C2CCN(Cc3cnn(Cc4ccccn4)c3)CC2)c1 [Example 167, N-(3-(1-((1-(pyridin-2-ylmethyl)-1H-pyrazol-4-yl)methyl)piperidin-4-yl)phenyl)propane-2-sulfonamide]",–,< 500
"CS(=O)(=O)Nc1cccc(C2CCN(Cc3nnn4c3-c3ccccc3C4)CC2)c1 [Example 119, N-(3-(1-((8H-[1,2,3]triazolo[5,1-a]isoindol-3-yl)methyl)piperidin-4-yl)phenyl)methanesulfonamide]",++,–
"Oc1cccc(C2CCN(Cc3cn(-c4ccc(C(F)(F)F)nc4)nn3)CC2)c1 [Example 60, 3-(1-((1-(6-(trifluoromethyl)pyridin-3-yl)-1H-1,2,3-triazol-4-yl)methyl)piperidin-4-yl)phenol]",–,< 100
"Oc1ccc(Cn2cc(CN3CCC(c4cccc(O)c4)CC3)nn2)nc1 [Example 159, 6-((4-((4-(3-hydroxyphenyl)piperidin-1-yl)methyl)-1H-1,2,3-triazol-1-yl)methyl)pyridin-3-ol]",–,≥ 500
"Oc1cccc(C2CCN(Cc3cn([C@@H]4c5ccccc5C[C@H]4O)nn3)CC2)c1 [Example 15, (1R,2R)-1-(4-((4-(3-hydroxyphenyl)piperidin-1-yl)methyl)-1H-1,2,3-triazol-1-yl)-2,3-dihydro-1H-inden-2-ol]",–,< 500
"Oc1cccc(C2CCN(Cc3cn([C@@H]4Cc5ccccc5[C@@H]4F)nn3)CC2)c1 [Example 71, 3-(1-((1-((1S,2R)-1-fluoro-2,3-dihydro-1H-inden-2-yl)-1H-1,2,3-triazol-4-yl)methyl)piperidin-4-yl)phenol]",–,< 100
"Oc1ccc(F)c(C2CCN(Cc3cn(Cc4ccccn4)nn3)CC2)c1 [Example 137, 4-fluoro-3-(1-((1-(pyridin-2-ylmethyl)-1H-1,2,3-triazol-4-yl)methyl)piperidin-4-yl)phenol]",–,< 500
"CS(=O)(=O)Nc1cc(C2CCN(Cc3cn(Cc4ccccc4)nn3)CC2)ccc1F [Example 90, N-(5-(1-((1-benzyl-1H-1,2,3-triazol-4-yl)methyl)piperidin-4-yl)-2-fluorophenyl)methanesulfonamide]",++,–
"Oc1cccc(C2CCN(Cc3cn(-c4ncccc4F)nn3)CC2)c1 [Example 154, 3-(1-((1-(3-fluoropyridin-2-yl)-1H-1,2,3-triazol-4-yl)methyl)piperidin-4-yl)phenol]",–,< 500
"Oc1cccc(C2CCN(Cc3cn(Cc4ccccc4)nn3)CC2)c1 [Example 8, 3-(1-((1-benzyl-1H-1,2,3-triazol-4-yl)methyl)piperidin-4-yl)phenol]",–,< 100
"CC(c1ccccn1)n1cc(CN2CCC(c3cccc(NS(C)(=O)=O)c3)CC2)nn1 (centres unmarked) [Example 86, N-(3-(1-((1-(1-(pyridin-2-yl)ethyl)-1H-1,2,3-triazol-4-yl)methyl)piperidin-4-yl)phenyl)methanesulfonamide]",++,–
"Cc1ccc2cc(-n3cc(CN4CCC(c5cccc(O)c5)CC4)nn3)ccc2n1 [Example 233, 3-(1-((1-(2-methylquinolin-6-yl)-1H-1,2,3-triazol-4-yl)methyl)piperidin-4-yl)phenol]",–,< 500
"Oc1cccc(C2CCN(Cc3cn(-c4coc5ccccc45)nn3)CC2)c1 [Example 89, 3-(1-((1-(benzofuran-3-yl)-1H-1,2,3-triazol-4-yl)methyl)piperidin-4-yl)phenol]",–,< 100

# Reference: patent US9981942B2, “Piperidine derivatives having multimodal activity against pain” (LABORATORIOS DEL DR. ESTEVE S.A., priority 2013, dated 2018)
